Experiment [1] relates to 3D engineered liver tissues. The experiment can be described thus: hepatic function of 3D engineered liver tissues (albumin secretion). It counts as cell-based, human. The source says: FIG. 10. A) Albumin secretion as a measure of hepatic phenotype, elevated in the presence of fibroblasts and RGDS peptide. B) Luminex bead measurements of human drug metabolism enzyme genes, showing upregulation of the genes in 3D as opposed to 2D, in various phases of drug metabolism.
More recently, it has been possible to extend the function of 3D engineered liver tissues even further, by addition of a micropatterning step pre-encapsulation (FIG. 11).

The subject of the next experiment is encapsulated tumor cells. Kind of experiment: 3D proliferation of encapsulated tumor cells in microtissues (large-particle flow analyzer). It is filed as cell-based. The source says: FIG. 16. Microtissue proliferation modulated by (a) incorporated extracellular matrix molecules, or (b) culture in soluble growth factors.
FIG. 17. Differences in tumor cell responses to small molecules in 2D vs. 3D culture. (a) Comparison of proliferation rates on 2D-microplate and 3D-microtissue formats relative to untreated controls. (b) Growth curve over time of tumor cells in 2D measured by microplate fluorescence, and (c) Growth curve over time of tumor cells in 3D measured by gel dissolution and DNA quantitation.
The in vitro 3D tumor model platform combines the split-injection encapsulation chip described in detail above with a large-particle flow analyzer and sorter (COPAS Biosort by Union Biometrica). Cells are first encapsulated within microtissues (˜5000/min) that can contain tumor cells, stromal cells, and various entrapped ECM. These microtissues are then further enriched using the flow sorter that measures the fluorescence intensity each microtissue, correlating with the density of zs-green tumor cells in each microtissue. (FIG. 15a), and can sort the microtissues (˜25 selected/min) into low, medium, and high homotypic cell density bins (FIG. 15b). […] Selected populations of microtissues are then exposed to stimuli in culture such as growth factors and inhibitors, and their proliferation over days is detected on a population level (FIG. 15b).

On to “RGDS: adhesive peptide (SEQ ID NO: 1), acrylate-PEG-RGDS incorporated in hydrogel; ligates α5β1 integrin (not fully specified; acrylate-PEG conjugate in hydrogel)”, for which, in experiment [1] (3D culture, ligation of α5β1 integrin via RGDS (FIG. 10A)), the hepatic functions result is recorded as “further improved hepatic functions”. In addition, in experiment [1] (in the presence of fibroblasts and RGDS peptide (FIG. 10A)), the “albumin secretion as a measure of hepatic phenotype” value is given as “elevated”.
TGF-β: the “slowing of 3D proliferation of encapsulated tumor cells” value in the experiment with encapsulated tumor cells (exogenous growth factor in culture, 3D microtissues (FIG. 16)) is roughly 80%.
For fibronectin, in the experiment with encapsulated tumor cells (extracellular matrix protein incorporated in microtissues (FIG. 16)), the “3D proliferation (growth) of encapsulated tumor cells” value is listed as “promoted growth”.

For the origin of these results see patent US10260039B2, “Microgels and microtissues for use in tissue engineering” (Massachusetts Institute of Technology, priority 2011, dated 2019).
